Data taken from BindingDB's records for doi:10.1016/j.bmcl.2012.03.090 (Spanish National Cancer Research Centre (Cnio), 2012).

These compounds were tested against Phosphatidylinositol 3-kinase regulatory subunit alpha/4,5-bisphosphate 3-kinase catalytic subunit alpha isoform (Homo sapiens, UniProt P27986+P42336) (assay: Inhibition of human PI3Kalpha (p110alpha/p85alpha) by ADP accumulation based HTRF assay).
Sequence of Phosphatidylinositol 3-kinase regulatory subunit alpha/4,5-bisphosphate 3-kinase catalytic subunit alpha isoform (P27986 whole entry, canonical isoform): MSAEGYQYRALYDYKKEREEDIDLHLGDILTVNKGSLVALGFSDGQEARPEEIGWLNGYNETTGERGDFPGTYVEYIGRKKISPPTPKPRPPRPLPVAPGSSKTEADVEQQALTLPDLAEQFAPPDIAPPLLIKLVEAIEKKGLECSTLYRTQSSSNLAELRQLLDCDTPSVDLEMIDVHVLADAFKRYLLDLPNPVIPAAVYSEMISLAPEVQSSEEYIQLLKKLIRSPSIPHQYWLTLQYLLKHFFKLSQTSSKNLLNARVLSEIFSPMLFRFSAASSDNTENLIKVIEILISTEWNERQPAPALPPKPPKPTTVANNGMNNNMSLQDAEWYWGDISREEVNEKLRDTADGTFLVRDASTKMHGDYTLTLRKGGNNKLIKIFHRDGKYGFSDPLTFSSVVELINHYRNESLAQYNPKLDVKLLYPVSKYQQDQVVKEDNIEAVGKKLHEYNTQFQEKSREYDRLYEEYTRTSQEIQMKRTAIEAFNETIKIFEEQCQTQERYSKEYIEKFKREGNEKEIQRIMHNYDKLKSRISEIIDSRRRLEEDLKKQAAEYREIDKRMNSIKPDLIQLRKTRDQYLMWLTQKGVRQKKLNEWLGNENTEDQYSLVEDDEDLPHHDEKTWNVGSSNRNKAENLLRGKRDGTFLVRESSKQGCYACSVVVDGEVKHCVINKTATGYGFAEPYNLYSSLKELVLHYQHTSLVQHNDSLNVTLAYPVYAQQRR
Sequence of Phosphatidylinositol 3-kinase regulatory subunit alpha/4,5-bisphosphate 3-kinase catalytic subunit alpha isoform (P42336 whole entry, canonical isoform): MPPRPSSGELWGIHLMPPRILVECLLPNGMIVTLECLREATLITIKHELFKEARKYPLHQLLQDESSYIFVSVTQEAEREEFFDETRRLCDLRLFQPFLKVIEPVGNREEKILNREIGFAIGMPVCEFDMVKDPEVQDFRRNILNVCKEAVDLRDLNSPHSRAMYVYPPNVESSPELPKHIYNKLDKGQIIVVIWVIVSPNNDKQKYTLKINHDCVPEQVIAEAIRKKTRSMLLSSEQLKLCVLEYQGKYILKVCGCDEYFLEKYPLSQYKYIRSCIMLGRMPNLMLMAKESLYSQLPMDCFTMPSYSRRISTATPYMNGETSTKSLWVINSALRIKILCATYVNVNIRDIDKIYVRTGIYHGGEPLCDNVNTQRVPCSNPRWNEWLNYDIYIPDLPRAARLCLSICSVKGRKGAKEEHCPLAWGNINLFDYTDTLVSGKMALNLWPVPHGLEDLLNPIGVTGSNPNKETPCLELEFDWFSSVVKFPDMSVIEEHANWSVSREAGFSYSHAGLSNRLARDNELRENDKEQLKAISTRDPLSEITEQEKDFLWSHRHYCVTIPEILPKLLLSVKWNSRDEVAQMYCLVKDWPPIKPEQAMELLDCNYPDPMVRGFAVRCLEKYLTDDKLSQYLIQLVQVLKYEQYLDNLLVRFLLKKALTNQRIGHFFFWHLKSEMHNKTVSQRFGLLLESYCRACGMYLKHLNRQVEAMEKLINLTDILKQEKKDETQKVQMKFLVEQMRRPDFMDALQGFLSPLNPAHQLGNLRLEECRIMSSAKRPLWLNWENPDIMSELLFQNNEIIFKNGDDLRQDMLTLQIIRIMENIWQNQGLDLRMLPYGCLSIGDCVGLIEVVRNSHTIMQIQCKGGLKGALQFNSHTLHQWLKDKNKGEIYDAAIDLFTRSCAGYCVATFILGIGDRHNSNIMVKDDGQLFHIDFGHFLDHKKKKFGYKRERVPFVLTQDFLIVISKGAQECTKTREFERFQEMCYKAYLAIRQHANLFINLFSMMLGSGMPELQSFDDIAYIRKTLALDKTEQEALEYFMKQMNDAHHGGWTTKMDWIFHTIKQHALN

`CS(=O)(=O)N1CCN(Cc2cn3cc(-c4cnc5[nH]ccc5c4)nc(N4CCOCC4)c3n2)CC1` was tested. Which IC50 did it give?
The IC50 was 113 nM.

`CC(=O)Nc1ccc(-c2cn3cc(CN4CCN(S(C)(=O)=O)CC4)nc3c(N3CCOCC3)n2)cn1` was tested. Which IC50 did it give?
The IC50 was 210 nM.

How did the IC50 turn out when `CS(=O)(=O)N1CCN(Cc2cn3cc(-c4ccc(N)nc4)nc(N4CCOCC4)c3n2)CC1` was run?
The IC50 was 169 nM.

Which IC50 does the source give for `COc1ccc(-c2cn3cc(CN4CCN(S(C)(=O)=O)CC4)nc3c(N3CCOCC3)n2)cn1` here?
The IC50 was 4550 nM.

Which IC50 does the source give for `Cc1ccncc1-c1cn2cc(CN3CCN(S(C)(=O)=O)CC3)nc2c(N2CCOCC2)n1` here?
Its IC50 is 468 nM.

Which IC50 does the source give for `Cc1ccc(-c2cn3cc(CN4CCN(S(C)(=O)=O)CC4)nc3c(N3CCOCC3)n2)cn1` here?
Its IC50 is 776 nM.

With `Cc1ncc(-c2cn3cc(CN4CCN(S(C)(=O)=O)CC4)nc3c(N3CCOCC3)n2)cn1` as the compound, how does the IC50 read?
Its IC50 is 21.1 nM.

How did the IC50 turn out when `Cc1nc(N)ncc1-c1cn2cc(CN3CCN(S(C)(=O)=O)CC3)nc2c(N2CCOCC2)n1` was run?
The IC50 was 32.3 nM.

How did the IC50 turn out when `CS(=O)(=O)N1CCC2(CC1)CN(Cc1cn3cc(-c4cnc(N)nc4)nc(N4CCOCC4)c3n1)C2` was run?
Its IC50 is 110 nM.

How did the IC50 turn out when `CN(C)CC(=O)N1CCN(Cc2cn3cc(-c4cnc(N)nc4)nc(N4CCOCC4)c3n2)CC1` was run?
Its IC50 is 34 nM.
